The values that follow come from US6379697B1, “Stabilization of photosensitive materials” (The Secretary of State for Defence in Her Britannic …, priority 1994, dated 2002).

The data set in a line: Photodegradation of riboflavin preparations under UV irradiation (254/365 nm), first order kinetics. Format: physicochemical. The following applies: for half-life: aqueous solution of free riboflavin under UV irradiation. As to the method:
At time intervals a known amount of the solution or suspension was diluted with double distilled water and the absorbance or fluorescence measured.
In the case of the liposome suspensions liposomal pellets were produced, solubilised with a 10% solution of Triton-X-100 (RTM) and then diluted and measured. The entrapment and degradation of riboflavin was calculated from the absorbance readings at 444 nm, absorbance at this wavelength not interfering with the absorbance of Triton-X-100.
The photodegradation of riboflavin caused by UV irradiation follows first order kinetics and is given by the following equation: […]
where C0 is the initial concentration of riboflavin, C is the concentration of riboflavin after t min of irradiation and k is the first order photodegradation rate constant.
The graphic representation of Equation (2) is linear and the slope of the line gives the photodegradation rate constant k.
The increase in stability was expressed by the stabilization ratio. (k0/k), where k0 is the photodegradation constant of free riboflavin in aqueous solution and k the photodegradation rate constant of the various preparations.
Riboflavin gamma-cyclodextrin inclusion complexes were entrapped in DRV incorporating a light absorbing agent or antioxidant in their lipid phase selected from: oil Red 0, oxybenzone, deoxybenzone and beta-carotene or combinations thereof. […] As in the previous examples this degradation followed first order kinetics represented by the equations given earlier.
In order to determine the extent of this reduction and to determine whether during the photodegradation of riboflavin the same concentration of oil Red 0 caused different reductions in fluorescence, solutions containing known amounts of riboflavin and oil Red 0 solubilised in water using Triton-X-100 were prepared and their fluorescence measured.

Read-outs that look alike come from different tables or passages of the source.

With `Cc1cc2nc3c(=O)[nH]c(=O)nc-3n(C[C@H](O)[C@H](O)[C@H](O)CO)c2cc1C` [Riboflavin, riboflavin], the half-life is approximately 30 min (aqueous solution, irradiation, read-out: half life of riboflavin in aqueous solution on irradiation) and 30 min (free riboflavin, UV irradiation, read-out: half life of riboflavin). The “rate of decomposition of riboflavin in aqueous solution on irradiation” value (aqueous solution, irradiation) came to 0.024 min⁻¹. The “k × 10^3, rate constant for the photodegradation of riboflavin” value (values are k × 10^3, UV lamp 254/365 nm, 3 cm, 24° C.) is reported as 24(k °) min^−1.
